“Also recorded” adds a separate entry of the source.
Tests used:
[1] = test system: 8-week DM WT mice; assay: OKT responses of 8-week DM WT mice after selective dopamine receptor agonists; type: in vivo; settings: DM WT mice after 8 weeks of diabetes, agonist injection vs vehicle
Description: After 8 weeks of diabetes, the animals were injected with vehicle, D1 receptor (D1R) agonist (SKF38393), and D4 receptor (D4R) agonist (PD168077).

[2] = test system: STZ-induced DM WT mice; assay: Optokinetic tracking (OKT) visual function with chronic L-DOPA treatment in STZ-induced diabetic (DM) and CTRL WT mice; type: in vivo; settings: for reduction in spatial frequency threshold: DM WT+L-DOPA group vs CTRL
Description: (§1) To examine whether DA deficiency causes visual deficits in early DR, the effects of restoring DA levels with L-DOPA on visual function of DM mice was investigated. […] Moreover, the severity of visual deficits progressed over time. The deficit in spatial frequency threshold of DM WT+Veh group (compared with CTRL WT+Veh group) worsened from 7.0% at 3 weeks after STZ to 12.3% at 6 weeks after STZ, whereas the reduction in contrast sensitivity deteriorated from 12.8% at 3 weeks after STZ to 43.6% at 6 weeks after STZ. […] The reduction in spatial frequency threshold of DM WT+L-DOPA group progressed from 2.4% at 3 weeks after STZ to 7.2% at 6 weeks after STZ, whereas the deficit in contrast sensitivity was only significant at 6 weeks after STZ, with an 18.0% reduction from CTRL animals. […] Furthermore, behavioral side effects such as dyskinesia with our current dosage of L-DOPA (10 mg/kg daily) in either CTRL or DM mice was not observed. A dosage was selected that was lower than the typical dosage used to induce dyskinesia (25 mg/kg) yet could still increase retinal DA levels.

[3] = test system: DM rTHKO mice; assay: OKT visual function with L-DOPA treatment in diabetic mice with loss of retinal DA (DM rTHKO); type: in vivo
Description: Because systemic injections of L-DOPA affect both brain and retinal dopaminergic systems, the role of retinal DA deficiency underlying visual deficits in early-stage DR was tested by assessing the effects of diabetes in mice with loss of retinal DA (rTHKO mice). It is hypothesized that reduced retinal DA content is a major contributing factor to the early visual deficits, so diabetes in rTHKO mice should not result in a further decline in their visual function.

[4] = test system: retinal DA levels; assay: Retinal dopamine content after daily intraperitoneal L-DOPA; type: in vivo, mice; settings: daily intraperitoneal injections
Description: To validate that daily intraperitoneal injections of L-DOPA were able to increase retinal DA levels, retinal dopamine contents of the following four groups of animals were measured: CTRL WT+Veh, CTRL WT+L-DOPA, DM rTHKO+Veh, and DM rTHKO+L-DOPA. The retinal TH deficiency in the rTHKO mice greatly diminished DA levels compared with both CTRL groups (one-way ANOVA with ranks, H=12.092 with 3 degrees of freedom, p=0.007; Table 3).

[5] = test system: retinal function of DM mice
Description: Next, the postreceptoral function (i.e., b-wave) of these animals was examined.

[6] = test system: Th, Drd1, Drd4 transcript levels; assay: Real-time RT-PCR of retinal dopaminergic system-related genes; type: in vivo, mice
Description: Note that the y-axis refers to averaged 2−ΔCt values, with ΔCt calculated by subtracting cycle threshold (Ct) of 18S from Ct of gene of interest (GOI). The asterisk indicates significant difference between the respective treatment group and the CTRL WT group.
The specificity of our Th primers was confirmed, because a >4-fold reduction in Th expression in rTHKO mice (Student's t values: DM rTHKO+Veh=5.964 and DM rTHKO+L-DOPA=5.928, p<0.01; FIG. 7, Table 4) regardless of L-DOPA treatment was found.
Whether diabetes affected transcript levels of DA receptors, specifically D1 receptor (Drd1) and D4 receptor (Drd4), which are selectively involved in spatial frequency threshold and contrast sensitivity was investigated. No significant changes were found in the transcript levels of Drd1 and Drd4 (FIG. 7, Table 4).

[7] = Behavioral side effects (dyskinesia) under L-DOPA; type: in vivo; settings: L-DOPA 10 mg/kg daily, CTRL or DM mice
Description: as §1

[8] = test system: retinal function of DM mice; assay: Light-adapted flicker ERG (cone pathway function); settings: 5-week time point
Description: Because OKT responses were recorded under photopic conditions, isolated cone pathway function was examined by exposing light-adapted animals to flicker stimuli.

SMILES: Cc1cccc(C(=O)NCN2CCN(c3ccccc3C#N)CC2)c1 [PD168077]
- contrast sensitivity [1]: only improved contrast sensitivity
- spatial frequency threshold [1]: failed to improve
- contrast sensitivity ([1]; listed as D4 agonist): significantly enhanced

SMILES: Oc1cc2c(cc1O)C(c1ccccc1)CNCC2 (stereo not drawn) [SKF38393, 1-Phenyl-2,3,4,5-tetrahydro-(1H)-3-benzazepine-7,8-diol]
- spatial frequency threshold [1]: only improved spatial frequency threshold
- spatial frequency threshold ([1]; listed as D1 receptor agonist): improved significantly

SMILES: N[C@@H](Cc1ccc(O)c(O)c1)C(=O)O [L-DOPA, (−)-L-α-amino-β-(3,4-dihydroxybenzene)propanoic acid]
- contrast sensitivity change ([2]; DM WT and L-DOPA mice, 6 weeks after STZ): slight decrease
- onset of visual deficits (spatial frequency threshold) ([2]; DM WT and L-DOPA mice, slower and less severe progression): 4 weeks after STZ
- onset and progression of visual dysfunction ([2]; DM WT mice, chronic L-DOPA treatment): significantly delayed
- reduction in spatial frequency threshold ([2]; 3 weeks after STZ, L-DOPA 10 mg/kg daily): 2.4%
- reduction in spatial frequency threshold ([2]; 6 weeks after STZ, L-DOPA 10 mg/kg daily): 7.2%
- deficit in contrast sensitivity (reduction from CTRL animals) ([2]; DM WT+L-DOPA group, 6 weeks after STZ, L-DOPA 10 mg/kg daily): 18.0%
- spatial frequency threshold or contrast sensitivity in CTRL mice ([2]; non-diabetic CTRL mice treated with L-DOPA): did not cause significant changes
- contrast sensitivities vs DM rTHKO+Veh [3]: significantly better
- visual functions of DM rTHKO mice ([3]; for the duration of the study): significantly improved
- spatial frequency thresholds vs DM rTHKO+Veh ([3]; throughout the study duration, p<0.001): significantly higher
- DA levels of CTRL mice ([4]; CTRL WT+L-DOPA): did not significantly increase
- retina DA contents of rTHKO mice ([4]; DM rTHKO+L-DOPA): levels comparable to those of CTRL animals
- b-wave amplitude ([5]; DM rTHKO mice (±L-DOPA) vs CTRL WT, dim and bright flash stimuli): significantly reduced responses
- b-wave implicit times ([5]; DM rTHKO+L-DOPA, dim and bright stimuli): strong, although not statistically significant, trend for improvement
- Drd4 transcript levels ([6]; DM WT+L-DOPA vs CTRL WT, p<0.05): significant downregulation; also recorded: downregulation of Drd4
- Th transcript levels ([6]; L-DOPA treatment, retina, RT-PCR): trend for Th downregulation
- behavioral side effects such as dyskinesia [7]: not observed
- flicker ERG responses (amplitude and implicit time) ([8]; DM WT+L-DOPA, light-adapted, 6 Hz flicker): levels similar to those of CTRL animals; also recorded: restore ERG responses of DM WT mice to those of CTRL mice
- cone pathway functions (flicker responses) ([8]; DM rTHKO+L-DOPA vs CTRL levels): partially restore
